Values of other authors as cited in US10720228B2, “Method and system for testing of active molecules using molecular simulation of skin membrane” (Tata Consultancy Services Limited, priority 2016, dated 2020).

Details: 323 K

O [water]
experimentally observed free energy of water solvation in hexadecane: 5.98 kcal/mol
